Experiments:
[1] = Stability of natamycin solutions in propylene glycol and aqueous potassium formate (residual natamycin by HPLC); assay type: physicochemical; conditions: natamycin 1% (w/w)
Protocol: (§1) Natamycin concentrations were determined using […] as follows. • HPLC system: Waters iClass • Column: Waters Symmetry C18, 4.6×150 mm, 3.5 μm, Part No. WAT200632, Column no. 1483, Lot no. 0198313011 • Column temperature: 25° C. • Eluent A: 50 mM ammonium acetate buffer pH 5.8 (with acetic acid) • Eluent B: Acetonitrile • Wash: 60% acetonitrile/40% water (v/v) • Injection volume: 10 μl • Injector temperature: 10° C. in darkness • Flow: 1 mL/min
(§2) The reverse phase HPLC uses a UV detector to determine the residual concentration of natamycin at 303 nm. A set of standard dilutions containing subsequently increasing concentrations of natamycin in methanol was made and from these a calibration curve was obtained. The concentration of natamycin should not exceed a concentration of 88 mg/L. Generally, the dilutions contained 20 mg of sample and […] of methanol.
A 3.5 M solution of potassium formate in water (15.17 g) was mixed with propylene glycol (80.32 g) and natamycin (1.059 g) and heated for 2.57 h until a final temperature of 105° C. A second batch was prepared by mixing a 3.5 M solution of potassium formate in water (15.07 g) with propylene glycol (80.5 g) and natamycin (1.032 g) and heating for 3.25 h until a final temperature of 105° C. Both batches were filtered over a 2 μm filter and combined to give a solution with a natamycin concentration of 1.08% (w/w). […] Samples of the mixtures were analyzed over time by HPLC for residual natamycin concentration. The shelf life test of the mixtures was done by storage at low temperatures (4-7° C.) and ambient temperatures (20-24° C.).

[2] = Stability of natamycin solutions in aqueous potassium sorbate (residual natamycin by HPLC); assay type: physicochemical
Protocol: as §1, §2
To obtain a 1% solution, 33 mg of natamycin was used instead of 0.2 g and heating during dissolution was omitted, resulting in a salt/natamycin ratio of 45 (w/w) or 200 (mole/mole). Samples of the mixtures were analyzed over time by HPLC for residual natamycin concentration. The shelf life test of the mixtures was done by storage at low temperatures (4-7° C.) and ambient temperatures (20-24° C.).

[3] = Stability of natamycin solutions in propylene glycol and aqueous sodium acetate or potassium acetate (residual natamycin by HPLC); assay type: physicochemical; conditions: 4-7° C., natamycin 1%
Protocol: as §1, §2
A 4.4 M solution of sodium acetate or a 5 M solution of potassium acetate in water (3 g) was mixed with propylene glycol (16 g) and natamycin (0.2 g) and heated until a final temperature of 105° C. to give a solution with a natamycin concentration of 1% (w/w). […] Samples of the mixtures were analyzed over time by HPLC for residual natamycin concentration. The shelf life test of the mixtures was done by storage at low temperatures (4-7° C.) and ambient temperatures (20-23° C.).

[4] = neutral pH values; cited from earlier work

Structure (SMILES): C[C@@H]1C/C=C/C=C/C=C/C=C/[C@H](O[C@@H]2O[C@H](C)[C@@H](O)[C@H](N)[C@@H]2O)C[C@@H]2O[C@](O)(C[C@@H](O)C[C@H]3O[C@@H]3/C=C/C(=O)O1)C[C@H](O)[C@H]2C(=O)O [natamycin]
- Residual natamycin (%) ([1]; Blank (water instead of potassium formate), propylene glycol, 4-7° C., pH 6.2, day 0): 80%
- Residual natamycin (%) ([1]; Blank (water instead of potassium formate), propylene glycol, 4-7° C., pH 6.2, day 14): 43%
- Residual natamycin (%) ([1]; Blank (water instead of potassium formate), propylene glycol, 4-7° C., pH 6.2, day 23): 22%
- Residual natamycin (%) ([1]; Blank (water instead of potassium formate), propylene glycol, 4-7° C., pH 6.2, day 32): 12%
- Residual natamycin (%) ([1]; Blank (water instead of potassium formate), propylene glycol, 4-7° C., pH 6.2, day 35): 7%
- Residual natamycin (%) ([1]; Blank (water instead of potassium formate), propylene glycol, 20-24° C., pH 6.3, day 0): 83%
- Residual natamycin (%) ([1]; Blank (water instead of potassium formate), propylene glycol, 20-24° C., pH 6.3, day 5): 72%
- Residual natamycin (%) ([1]; Blank (water instead of potassium formate), propylene glycol, 20-24° C., pH 6.3, day 7): 66%
- Residual natamycin (%) ([1]; Blank (water instead of potassium formate), propylene glycol, 20-24° C., pH 6.3, day 12): 55%
- Residual natamycin (%) ([1]; Blank (water instead of potassium formate), propylene glycol, 20-24° C., pH 6.3, day 14): 52%
- Residual natamycin (%) ([1]; Blank (water instead of potassium formate), propylene glycol, 20-24° C., pH 6.3, day 25): 31%
- Residual natamycin (%) ([1]; Blank (water instead of potassium formate), propylene glycol, 20-24° C., pH 6.3, day 27): 25%
- Residual natamycin (%) ([1]; Blank (water instead of potassium formate), propylene glycol, 20-24° C., pH 6.3, day 43): 18%
- Residual natamycin (%) ([1]; Blank (water instead of potassium formate), propylene glycol, 20-24° C., pH 6.3, day 74): 6%
- Residual natamycin (%) ([1]; propylene glycol + aqueous potassium formate, 4-7° C., pH 9.5, day 0): 111%
- Residual natamycin (%) ([1]; propylene glycol + aqueous potassium formate, 4-7° C., pH 9.5, day 5): 114%
- Residual natamycin (%) ([1]; propylene glycol + aqueous potassium formate, 4-7° C., pH 9.5, day 14): 114%
- Residual natamycin (%) ([1]; propylene glycol + aqueous potassium formate, 4-7° C., pH 9.5, day 23): 112%
- Residual natamycin (%) ([1]; propylene glycol + aqueous potassium formate, 4-7° C., pH 9.5, day 43): 108%
- Residual natamycin (%) ([1]; propylene glycol + aqueous potassium formate, 4-7° C., pH 9.8, day 0): 96%
- Residual natamycin (%) ([1]; propylene glycol + aqueous potassium formate, 4-7° C., pH 9.8, day 4): 96%
- Residual natamycin (%) ([1]; propylene glycol + aqueous potassium formate, 4-7° C., pH 9.8, day 10): 97%
- Residual natamycin (%) ([1]; propylene glycol + aqueous potassium formate, 4-7° C., pH 9.8, day 15): 88%
- Residual natamycin (%) ([1]; propylene glycol + aqueous potassium formate, 4-7° C., pH 9.8, day 18): 92%
- Residual natamycin (%) ([1]; propylene glycol + aqueous potassium formate, 4-7° C., pH 9.8, day 25): 91%
- Residual natamycin (%) ([1]; propylene glycol + aqueous potassium formate, 4-7° C., pH 9.8, day 42): 88%
- Residual natamycin (%) ([1]; propylene glycol + aqueous potassium formate, 4-7° C., pH 9.8, day 53): 90%
- Residual natamycin (%) ([1]; propylene glycol + aqueous potassium formate, 4-7° C., pH 9.8, day 60): 96%
- Residual natamycin (%) ([1]; propylene glycol + aqueous potassium formate, 4-7° C., pH 9.8, day 80): 87%
- Residual natamycin (%) ([1]; propylene glycol + aqueous potassium formate, 4-7° C., pH lowered to 5.9 by formic acid, day 0): 83%
- Residual natamycin (%) ([1]; propylene glycol + aqueous potassium formate, 4-7° C., pH lowered to 5.9 by formic acid, day 5): 66%
- Residual natamycin (%) ([1]; propylene glycol + aqueous potassium formate, 4-7° C., pH lowered to 5.9 by formic acid, day 14): 45%
- Residual natamycin (%) ([1]; propylene glycol + aqueous potassium formate, 4-7° C., pH lowered to 5.9 by formic acid, day 23): 21%
- Residual natamycin (%) ([1]; propylene glycol + aqueous potassium formate, 4-7° C., pH lowered to 5.9 by formic acid, day 43): 2%
- Residual natamycin (%) ([1]; propylene glycol + aqueous potassium formate, 4-7° C., pH lowered to 8.8 by formic acid, day 0): 94%
- Residual natamycin (%) ([1]; propylene glycol + aqueous potassium formate, 4-7° C., pH lowered to 8.8 by formic acid, day 5): 96%
- Residual natamycin (%) ([1]; propylene glycol + aqueous potassium formate, 4-7° C., pH lowered to 8.8 by formic acid, day 14): 94%
- Residual natamycin (%) ([1]; propylene glycol + aqueous potassium formate, 4-7° C., pH lowered to 8.8 by formic acid, day 23): 93%
- Residual natamycin (%) ([1]; propylene glycol + aqueous potassium formate, 4-7° C., pH lowered to 8.8 by formic acid, day 43): 86%
- Residual natamycin (%) ([1]; propylene glycol + aqueous potassium formate, 4-7° C., pH lowered to 9.0 by formic acid, day 0): 93%
- Residual natamycin (%) ([1]; propylene glycol + aqueous potassium formate, 4-7° C., pH lowered to 9.0 by formic acid, day 5): 97%
- Residual natamycin (%) ([1]; propylene glycol + aqueous potassium formate, 4-7° C., pH lowered to 9.0 by formic acid, day 14): 94%
- Residual natamycin (%) ([1]; propylene glycol + aqueous potassium formate, 4-7° C., pH lowered to 9.0 by formic acid, day 23): 93%
- Residual natamycin (%) ([1]; propylene glycol + aqueous potassium formate, 4-7° C., pH lowered to 9.0 by formic acid, day 43): 92%
- Residual natamycin (%) ([1]; propylene glycol + aqueous potassium formate, 20-24° C., pH 9.8, day 0): 92%
- Residual natamycin (%) ([1]; propylene glycol + aqueous potassium formate, 20-24° C., pH 9.8, day 5): 95%
- Residual natamycin (%) ([1]; propylene glycol + aqueous potassium formate, 20-24° C., pH 9.8, day 7): 95%
- Residual natamycin (%) ([1]; propylene glycol + aqueous potassium formate, 20-24° C., pH 9.8, day 9): 92%
- Residual natamycin (%) ([1]; propylene glycol + aqueous potassium formate, 20-24° C., pH 9.8, day 12): 87%
- Residual natamycin (%) ([1]; propylene glycol + aqueous potassium formate, 20-24° C., pH 9.8, day 18): 92%
- Residual natamycin (%) ([1]; propylene glycol + aqueous potassium formate, 20-24° C., pH 9.8, day 20): 87%
- Residual natamycin (%) ([1]; propylene glycol + aqueous potassium formate, 20-24° C., pH 9.8, day 27): 86%
- Residual natamycin (%) ([1]; propylene glycol + aqueous potassium formate, 20-24° C., pH 9.8, day 32): 82%
- Residual natamycin (%) ([1]; propylene glycol + aqueous potassium formate, 20-24° C., pH 9.8, day 35): 83%
- Residual natamycin (%) ([1]; propylene glycol + aqueous potassium formate, 20-24° C., pH 9.8, day 43): 80%
- Residual natamycin (%) ([1]; propylene glycol + aqueous potassium formate, 20-24° C., pH 9.8, day 74): 69%
- Residual natamycin (%) ([2]; 4-7° C., pH 9.7, natamycin 6% (w/w), day 0): 103%
- Residual natamycin (%) ([2]; 4-7° C., pH 9.7, natamycin 6% (w/w), day 5): 103%
- Residual natamycin (%) ([2]; 4-7° C., pH 9.7, natamycin 6% (w/w), day 6): 99%
- Residual natamycin (%) ([2]; 4-7° C., pH 9.7, natamycin 6% (w/w), day 12): 100%
- Residual natamycin (%) ([2]; 4-7° C., pH 9.7, natamycin 6% (w/w), day 31): 92%
- Residual natamycin (%) ([2]; 4-7° C., pH 9.7, natamycin 6% (w/w), day 42): 92%
- Residual natamycin (%) ([2]; 4-7° C., pH 9.7, natamycin 6% (w/w), day 49): 88%
- Residual natamycin (%) ([2]; 4-7° C., pH 9.7, natamycin 6% (w/w), day 69): 80%
- Residual natamycin (%) ([2]; 20-24° C., pH 9.6, natamycin 6% (w/w), day 0): 105%
- Residual natamycin (%) ([2]; 20-24° C., pH 9.6, natamycin 6% (w/w), day 2): 104%
- Residual natamycin (%) ([2]; 20-24° C., pH 9.6, natamycin 6% (w/w), day 6): 98%
- Residual natamycin (%) ([2]; 20-24° C., pH 9.6, natamycin 6% (w/w), day 8): 98%
- Residual natamycin (%) ([2]; 20-24° C., pH 9.6, natamycin 6% (w/w), day 15): 97%
- Residual natamycin (%) ([2]; 20-24° C., pH 9.6, natamycin 6% (w/w), day 20): 95%
- Residual natamycin (%) ([2]; 20-24° C., pH 9.6, natamycin 6% (w/w), day 23): 93%
- Residual natamycin (%) ([2]; 20-24° C., pH 9.6, natamycin 6% (w/w), day 34): 81%
- Residual natamycin (%) ([2]; 20-24° C., pH 9.6, natamycin 6% (w/w), day 65): 73%
- Residual natamycin (%) ([2]; 20-24° C., pH 9.9, natamycin 1% (w/w), day 0): 104%
- Residual natamycin (%) ([2]; 20-24° C., pH 9.9, natamycin 1% (w/w), day 2): 101%
- Residual natamycin (%) ([2]; 20-24° C., pH 9.9, natamycin 1% (w/w), day 6): 97%
- Residual natamycin (%) ([2]; 20-24° C., pH 9.9, natamycin 1% (w/w), day 8): 94%
- Residual natamycin (%) ([2]; 20-24° C., pH 9.9, natamycin 1% (w/w), day 15): 88%
- Residual natamycin (%) ([2]; 20-24° C., pH 9.9, natamycin 1% (w/w), day 20): 79%
- Residual natamycin (%) ([2]; 20-24° C., pH 9.9, natamycin 1% (w/w), day 23): 80%
- Residual natamycin (%) ([2]; 20-24° C., pH 9.9, natamycin 1% (w/w), day 34): 62%
- Residual natamycin (%) ([2]; 20-24° C., pH 9.9, natamycin 1% (w/w), day 65): 45%
- Residual natamycin (%) ([3]; Blank (absence of sodium), propylene glycol, pH 6.2, day 0): 80%
- Residual natamycin (%) ([3]; Blank (absence of sodium), propylene glycol, pH 6.2, day 12): 43%
- Residual natamycin (%) ([3]; Blank (absence of sodium), propylene glycol, pH 6.2, day 23): 22%
- Residual natamycin (%) ([3]; Blank (absence of sodium), propylene glycol, pH 6.2, day 30): 12%
- Residual natamycin (%) ([3]; Blank (absence of sodium), propylene glycol, pH 6.2, day 31): 7%
- Residual natamycin (%) ([3]; Blank (absence of sodium), propylene glycol, pH 6.2, day 50): 1%
- Residual natamycin (%) ([3]; propylene glycol + aqueous sodium acetate, pH 8.2, day 0): 98%
- Residual natamycin (%) ([3]; propylene glycol + aqueous sodium acetate, pH 8.2, day 31): 72%
- Residual natamycin (%) ([3]; propylene glycol + aqueous sodium acetate, pH 8.2, day 51): 58%
- solubility in water [4]: around 0.04 g/kg

— patent publication US20210227837A1, “NATAMYCIN FOR THE PRESERVATION OF A BAKED PRODUCT” (DSM IP ASSETS B.V., priority 2018, published 2021)
